The values below come from patent publication US9951046B2, “TRPA1 modulators” (Algomedix, Inc., priority 2014, dated 2018).

In this assay the target is T1, human TRPA1 (Homo sapiens, UniProt O75762).
T1 construct: expressed in transfected cells
Kind of assay: Cell-based functional intracellular calcium ([Ca2+]i) assay, Fluo-4/Fluo-8, FlexStation, challenge with reference TRPA1 agonist (FFA, AITC or 4-HNE). The method in brief:
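Doxycycline-induced (1 μg/ml) HEK293 expressing human TRPA1, with 5 μM ruthenium red during induction, loaded with Fluo-4 or Fluo-8 plus 2 mM probenecid; FlexStation read at 20-25° C, sometimes with 0.1% BSA.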
(Calcium flux is commonly read through the fluorescence of an indicator in the cells.)

Where [1] appears, read: HEK293 cells expressing human TRPA1, IC50 class after addition of reference TRPA1 agonist (FFA, AITC or 4-HNE), read-out: human TRPA1-HEK Activity.

Where two headings read alike, the source gives them in different places.

T1 sequence (O75762 whole entry): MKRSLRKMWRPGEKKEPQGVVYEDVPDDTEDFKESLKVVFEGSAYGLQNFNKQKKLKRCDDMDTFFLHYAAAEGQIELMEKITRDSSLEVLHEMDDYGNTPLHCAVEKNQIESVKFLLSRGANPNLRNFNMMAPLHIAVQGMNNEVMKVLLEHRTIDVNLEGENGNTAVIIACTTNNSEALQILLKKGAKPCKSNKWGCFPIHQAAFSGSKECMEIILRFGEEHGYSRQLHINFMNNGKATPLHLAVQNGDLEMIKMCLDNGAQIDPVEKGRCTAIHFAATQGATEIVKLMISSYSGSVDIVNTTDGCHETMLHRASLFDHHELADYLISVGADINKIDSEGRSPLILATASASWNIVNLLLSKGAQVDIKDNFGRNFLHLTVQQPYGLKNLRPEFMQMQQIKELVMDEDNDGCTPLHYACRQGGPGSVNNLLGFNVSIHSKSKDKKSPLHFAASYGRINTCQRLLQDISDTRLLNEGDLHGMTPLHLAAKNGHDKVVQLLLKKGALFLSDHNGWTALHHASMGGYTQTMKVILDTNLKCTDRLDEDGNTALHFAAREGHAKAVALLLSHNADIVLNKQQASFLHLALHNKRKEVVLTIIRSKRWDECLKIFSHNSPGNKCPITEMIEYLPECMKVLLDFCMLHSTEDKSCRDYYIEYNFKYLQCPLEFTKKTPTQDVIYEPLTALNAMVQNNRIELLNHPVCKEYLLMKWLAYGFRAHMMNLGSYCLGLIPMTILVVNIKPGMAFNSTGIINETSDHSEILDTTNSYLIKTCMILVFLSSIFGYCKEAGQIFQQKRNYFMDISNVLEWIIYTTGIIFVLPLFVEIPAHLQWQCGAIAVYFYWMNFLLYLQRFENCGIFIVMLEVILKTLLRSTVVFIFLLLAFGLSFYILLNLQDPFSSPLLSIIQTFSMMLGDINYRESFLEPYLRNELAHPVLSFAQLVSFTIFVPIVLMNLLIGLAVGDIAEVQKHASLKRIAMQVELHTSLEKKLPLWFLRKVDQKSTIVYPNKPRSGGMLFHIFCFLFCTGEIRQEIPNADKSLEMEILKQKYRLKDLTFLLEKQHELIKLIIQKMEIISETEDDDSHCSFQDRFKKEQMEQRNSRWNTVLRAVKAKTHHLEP

For the compound `O=C(c1cc(-c2ccncc2)n(-c2cc(F)c(F)c(F)c2)n1)N1CCC(n2c(=O)[nH]c3cc(C(F)(F)F)ccc32)CC1` [Compound 176], under setting [1], the IC50 was in the range of 5 to 25 µM. With `O=C(c1cc(-c2ccncc2)n(-c2ccc(C(F)(F)F)cc2)n1)N1CCC(n2c(=O)[nH]c3ccc(F)c(F)c32)CC1` [Compound 177], the IC50 under setting [1] lay in the range of 0.001 to 5 µM. Consider `O=C(c1cc(-c2ccncc2)n(-c2ccc(C(F)(F)F)cc2)n1)N1CCC(n2c(=O)[nH]c3cc(C(F)(F)F)ccc32)CC1` [Compound 178], for which, under setting [1], the IC50 is 5 to 25 µM. Same read-out and setting: in the case of `O=C(c1cc(-c2ccncc2)n(-c2ccc(C(F)(F)F)c(F)c2)n1)N1CCC2(CC1)C(=O)NCN2c1ccc(OC(F)(F)F)cc1` [Compound 179] it was more than 25 µM.

For the compound `O=C(c1cc(-c2cccnc2)n(-c2ccc(C(F)(F)F)c(F)c2)n1)N1CCC2(CC1)C(=O)NCN2c1ccc(F)c(F)c1` [Compound 181], the IC50 under setting [1] lay within 0.001 to 5 µM. Same read-out and setting: with `O=C(c1cc(-c2cccnc2)n(-c2ccc(C(F)(F)F)c(F)c2)n1)N1CCC(n2c(=S)[nH]c3ccc(F)c(F)c32)CC1` [Compound 182] the figure was 0.001 to 5 µM; with `O=C(c1cc(-c2cccnc2)n(-c2ccc(C(F)(F)F)c(F)c2)n1)N1CCC2(CC1)C(=O)NCN2c1ccc(I)cc1` [Compound 183], more than 25 µM; with `O=C(c1cc(-c2cccnc2)n(-c2ccc(C(F)(F)F)c(F)c2)n1)N1CCC2(CC1)C(=O)NCN2c1ccc(Br)cc1` [Compound 184], more than 25 µM. For `O=C(c1cc(-c2cccnc2)n(-c2ccc(C(F)(F)F)c(F)c2)n1)N1CCC2(CC1)C(=O)NC(=O)N2c1ccc(F)cc1` [Compound 185], the IC50 is 5 to 25 µM. On to `O=C(c1cc(-c2cccnc2)n(-c2ccc(C(F)(F)F)c(F)c2)n1)N1CCC2(CC1)C(=O)NCN2c1cc(F)c(F)c(F)c1` [Compound 186], for which the IC50 under setting [1] lay within 0.001 to 5 µM. For `O=C(c1cc(-c2cccnc2)n(-c2ccc(C(F)(F)F)c(F)c2)n1)N1CCC2(CC1)C(=O)NCN2c1ccc(F)c(C(F)(F)F)c1` [Compound 187], the IC50 under setting [1] lay in the range of 0.001 to 5 µM. For the compound `O=C(c1cc(-c2cccnc2)n(-c2ccc(C(F)(F)F)c(F)c2)n1)N1CCC2(CC1)C(=O)NCN2c1ccc(OC(F)F)cc1` [Compound 188], the IC50 under setting [1] was in the range of 0.001 to 5 µM. For `O=C(c1cc(-c2cccnc2)n(-c2ccc(C(F)(F)F)c(F)c2)n1)N1CCC2(CC1)C(=O)NCN2c1ccc(F)c(Cl)c1` [Compound 189], the IC50 under setting [1] was 0.001 to 5 µM. As for `N#Cc1ccc2[nH]c(=O)n(C3CCN(C(=O)c4cc(-c5cccnc5)n(-c5ccc(C(F)(F)F)c(F)c5)n4)CC3)c2c1` [Compound 190], the IC50 under setting [1] lay in the range of 0.001 to 5 µM.

In the case of `O=C(c1cc(-c2cccnc2)n(-c2ccc(C(F)(F)F)c(F)c2)n1)N1CCN2C(=O)OC[C@@H]2C1` [Compound 191], the IC50 under setting [1] lay in the range of 0.001 to 5 µM. With `O=C(c1cc(-c2cccnc2)n(-c2ccc(C(F)(F)F)c(F)c2)n1)N1CCN2C(=O)OC3(CC3)[C@@H]2C1` [Compound 192], the IC50 lay in the range of 0.001 to 5 µM.

On to `O=C(c1cc(-c2cccnc2)n(-c2ccc(C(F)(F)F)c(F)c2)n1)N1C2CCC1CC1(C2)C(=O)NCN1c1ccc(F)cc1` (stereo not shown) [Compound 193], for which the IC50 is 0.001 to 5 µM. `CC1CC(n2c(=O)[nH]c3ccc(F)c(F)c32)CC(C)N1C(=O)c1cc(-c2cccnc2)n(-c2ccc(C(F)(F)F)c(F)c2)n1` (stereo not shown) [Compound 194]: under setting [1], the IC50 fell in the range of 5 to 25 µM. Still for that read-out and setting: in the case of `Cc1cc(N2CNC(=O)C23CCN(C(=O)c2cc(-c4cccnc4)n(-c4ccc(C(F)(F)F)c(F)c4)n2)CC3)cc(C)c1F` [Compound 195] it was 0.001 to 5 µM; in that of `O=C(c1cc(-c2cccnc2)n(-c2ccc(C(F)(F)F)c(F)c2)n1)N1CCC(n2c(=O)[nH]c3ccc(F)c(C(F)(F)F)c32)CC1` [Compound 196], 0.001 to 5 µM. Same read-out and setting: with `COc1cc(F)ccc1N1CNC(=O)C12CCN(C(=O)c1cc(-c3cccnc3)n(-c3ccc(C(F)(F)F)c(F)c3)n1)CC2` [Compound 197] the figure was 5 to 25 µM; with `O=C(c1cc(-c2cccnc2)n(-c2cc(F)c(F)c(F)c2)n1)N1CCC2(CC1)C(=O)NCN2c1ccc(I)cc1` [Compound 200], 0.001 to 5 µM; with `O=C(c1cc(-c2cccnc2)n(-c2cc(F)c(F)c(F)c2)n1)N1CCC2(CC1)C(=O)NCN2c1ccc(Br)cc1` [Compound 201], 0.001 to 5 µM. On to `Cc1c(F)ccc2[nH]c(=O)n(C3CCN(C(=O)c4cc(-c5cccnc5)n(-c5cc(F)c(F)c(F)c5)n4)CC3)c12` [Compound 202], for which, under setting [1], the IC50 fell in the range of 0.001 to 5 µM. Still for that read-out and setting: in the case of `CC1CC(n2c(=O)[nH]c3ccc(F)c(F)c32)CC(C)N1C(=O)c1cc(-c2cccnc2)n(-c2cc(F)c(F)c(F)c2)n1` (stereo not shown) [Compound 203] it was more than 25 µM. With `Cc1cc(N2CNC(=O)C23CCN(C(=O)c2cc(-c4cccnc4)n(-c4cc(F)c(F)c(F)c4)n2)CC3)cc(C)c1F` [Compound 204], the IC50 under setting [1] is 0.001 to 5 µM. Consider `CC1CN(C(=O)c2cc(-c3cccnc3)n(-c3cc(F)c(F)c(F)c3)n2)CC(C)C1n1c(=O)[nH]c2ccc(F)c(F)c21` (stereo not shown) [Compound 207], for which, under setting [1], the IC50 was more than 25 µM. For `O=C(c1cc(-c2cccnc2)n(-c2cc(F)c(F)c(F)c2)n1)N1CCC(n2c(=O)[nH]c3cccnc32)CC1` [Compound 208], the IC50 under setting [1] was in the range of 0.001 to 5 µM. With `O=C(c1nn(-c2cc(F)c(F)c(F)c2)c(-c2cccnc2)c1Br)N1CCC2(CC1)C(=O)NCN2c1ccc(F)cc1` [Compound 210], under setting [1], the IC50 fell in the range of 0.001 to 5 µM. As to `O=C(c1nn(-c2cc(F)c(F)c(F)c2)c(-c2cccnc2)c1Br)N1CCC(n2c(=O)[nH]c3ccc(F)c(F)c32)CC1` [Compound 211], under setting [1], the IC50 lay within 0.001 to 5 µM. Consider `N#Cc1ccc(-n2nc(C(=O)N3CCC(n4c(=O)[nH]c5ccc(F)c(F)c54)CC3)cc2-c2cccnc2)cc1` [Compound 212], for which the IC50 under setting [1] was 0.001 to 5 µM. Consider `N#Cc1ccc(-n2nc(C(=O)N3CCC4(CC3)C(=O)NCN4c3ccc(F)c(F)c3)cc2-c2cccnc2)cc1` [Compound 213], for which the IC50 under setting [1] lay within 0.001 to 5 µM. As to `O=C(c1cc(-c2cccnc2)n(-c2ccc(OC(F)(F)F)c(F)c2)n1)N1CCC2(CC1)C(=O)NCN2c1ccc(F)c(F)c1` [Compound 214], the IC50 under setting [1] fell in the range of 0.001 to 5 µM. With `O=C(c1cc(-c2cccnc2)n(-c2ccc(OC(F)(F)F)c(F)c2)n1)N1CCC(n2c(=O)[nH]c3ccc(F)c(F)c32)CC1` [Compound 215], under setting [1], the IC50 was 0.001 to 5 µM. On the same count and under the same terms, with `N#Cc1ccc(-n2nc(C(=O)N3CCC4(CC3)C(=O)NCN4c3ccc(F)c(F)c3)cc2-c2cccnc2)cc1F` [Compound 216] the figure was 0.001 to 5 µM; with `CC(C)(C)c1ccc(-n2nc(C(=O)N3CCC4(CC3)C(=O)NCN4c3ccc(F)c(F)c3)cc2-c2cccnc2)cc1` [Compound 217], 0.001 to 5 µM; with `O=C(c1cc(-c2cccnc2)n(-c2ccc(C(F)(F)F)cc2Cl)n1)N1CCC2(CC1)C(=O)NCN2c1ccc(F)c(F)c1` [Compound 218], 0.001 to 5 µM.

With `O=C(c1cc(-c2cccnc2)n(-c2c(Cl)cc(C(F)(F)F)cc2Cl)n1)N1CCC2(CC1)C(=O)NCN2c1ccc(F)c(F)c1` [Compound 219], under setting [1], the IC50 was 0.001 to 5 µM.

As for `O=C(c1cc(-c2cccnc2)n(-c2ccc(OC(F)(F)F)cc2)n1)N1CCC(n2c(=O)[nH]c3ccc(F)c(F)c32)CC1` [Compound 220], under setting [1], the IC50 was 0.001 to 5 µM.

On to `O=C(c1cc(-c2cccnc2)n(-c2ccc(C(F)(F)F)c(F)c2F)n1)N1CCC(n2c(=O)[nH]c3ccc(F)c(F)c32)CC1` [Compound 222], for which the IC50 under setting [1] lay within 0.001 to 5 µM. On the same count and under the same terms, with `O=C(c1cc(-c2cccnc2)n(-c2cc(F)c(C(F)(F)F)cc2F)n1)N1CCC(n2c(=O)[nH]c3ccc(F)c(F)c32)CC1` [Compound 223] the figure was 0.001 to 5 µM. For the compound `N#Cc1ccc(-n2nc(C(=O)N3CCC(n4c(=O)[nH]c5ccc(F)c(F)c54)CC3)cc2-c2cccnc2)cc1F` [Compound 224], the IC50 under setting [1] was in the range of 0.001 to 5 µM.

Take `Cc1cc(OC(F)(F)F)ccc1-n1nc(C(=O)N2CCC3(CC2)C(=O)NCN3c2ccc(F)c(F)c2)cc1-c1cccnc1` [Compound 225]: the IC50 under setting [1] was 0.001 to 5 µM. As to `Cc1cc(OC(F)(F)F)ccc1-n1nc(C(=O)N2CCC3(CC2)C(=O)NCN3c2ccc(F)cc2)cc1-c1cccnc1` [Compound 226], the IC50 under setting [1] fell in the range of 0.001 to 5 µM. On the same count and under the same terms, in the case of `Cc1cc(OC(F)(F)F)ccc1-n1nc(C(=O)N2CCC(n3c(=O)[nH]c4ccc(F)c(F)c43)CC2)cc1-c1cccnc1` [Compound 227] it was 0.001 to 5 µM. Turning to `N#Cc1ccc2c(c1)[nH]c(=O)n2C1CCN(C(=O)c2cc(-c3cccnc3)n(-c3ccc(C(F)(F)F)c(F)c3)n2)CC1` [Compound 228], the IC50 under setting [1] was 0.001 to 5 µM. Take `N#Cc1ccc2c(c1)[nH]c(=O)n2C1CCN(C(=O)c2cc(-c3cccnc3)n(-c3cc(F)c(F)c(F)c3)n2)CC1` [Compound 229]: under setting [1], the IC50 lay within 0.001 to 5 µM. The same measure, in the same setting: in the case of `O=C1Nc2ccc(F)cc2C2(CCN(C(=O)c3cc(-c4cccnc4)n(-c4ccc(C(F)(F)F)c(F)c4)n3)CC2)O1` [Compound 230] it was 0.001 to 5 µM. With `O=C1Nc2ccc(F)cc2C2(CCN(C(=O)c3cc(-c4cccnc4)n(-c4cc(F)c(F)c(F)c4)n3)CC2)O1` [Compound 231], the IC50 under setting [1] was 0.001 to 5 µM.

`N#Cc1cccc2[nH]c(=O)n(C3CCN(C(=O)c4cc(-c5cccnc5)n(-c5cc(F)c(F)c(F)c5)n4)CC3)c12` [Compound 232]: the IC50 under setting [1] lay in the range of 0.001 to 5 µM. On the same count and under the same terms, with `N#Cc1c(F)ccc2[nH]c(=O)n(C3CCN(C(=O)c4cc(-c5cccnc5)n(-c5cc(F)c(F)c(F)c5)n4)CC3)c12` [Compound 233] the figure was 0.001 to 5 µM; with `N#Cc1cc2[nH]c(=O)n(C3CCN(C(=O)c4cc(-c5cccnc5)n(-c5ccc(C(F)(F)F)c(F)c5)n4)CC3)c2cc1F` [Compound 234], 0.001 to 5 µM. As to `N#Cc1cc2[nH]c(=O)n(C3CCN(C(=O)c4cc(-c5cccnc5)n(-c5cc(F)c(F)c(F)c5)n4)CC3)c2cc1F` [Compound 235], the IC50 under setting [1] lay within 0.001 to 5 µM.

As to `O=C(c1cc(-c2cccnc2)n(-c2ccc(C(F)(F)F)cc2C(F)(F)F)n1)N1CCC(n2c(=O)[nH]c3ccc(F)c(F)c32)CC1` [Compound 236], the IC50 under setting [1] fell in the range of 0.001 to 5 µM. Take `O=C(c1cc(-c2cccnc2)n(-c2ccc(I)cc2)n1)N1CCC(n2c(=O)[nH]c3ccc(F)c(F)c32)CC1` [Compound 237]: the IC50 under setting [1] lay in the range of 0.001 to 5 µM.
